Here are results for two molecules from patent US20190358371A1, “HEMOSTATIC DEVICES AND METHODS OF USE” (priority 2016, published 2019).

Data set [1] can be described thus: stability of rifampin and minocycline in PBS with and without tranexamic acid (Example 14). The format is physicochemical. To be noted: room temperature (about 23 C) and 37 C.
The nature of data set [2]: in vitro elution of rifampin and minocycline from p22-27.5 polymers with TXA in release media (Example 15). Format: physicochemical. To be noted: PBS pH 7.4, TXA 0, 0.05 or 5 mg/mL, over 25 hours. As for the experimental part:
B1=PBS pH 7.4; B2=PBS, pH 7.4+TXA (0.05 mg/mL); B3=PBS, pH 7.4+TXA (5 mg/mL).

For a further data set, the system named is blood. The data set is described as follows: time required to induce blood clotting in vitro (Examples 17 and 18). Format: biochemical. As to the method: Tests were conducted to compare the time required to induce blood clotting in vitro when different amounts of hemostatic agent is administered in the presence of TYRX (degradable mesh coated with P22-27.5 containing rifampin and minocycline), as shown in FIG. 35.
Tests were conducted to compare the time required for different hemostatic agents to induce blood clotting in vitro versus the time required to induce blood clotting in vitro when no hemostatic agent is administered. In particular, the time required to induce blood clotting was plotted for blood alone, TYRX), Surgicel, TYRX with 1.6 mg of TXA, 1.2 mg of TXA alone and TYRX with 200 mg of TXA. In this example, TYRX refers to a Glycoprene mesh that is coated with P22-27.5 (a polymer in the P22-X family) containing Rifampin and Minocycline.

The conditions of data set [3]: given preoperatively; cited from earlier work.

With `CO[C@H]1/C=C/O[C@@]2(C)Oc3c(C)c(O)c4c(O)c(c(/C=N/N5CCN(C)CC5)c(O)c4c3C2=O)NC(=O)/C(C)=C\C=C\[C@H](C)[C@H](O)[C@@H](C)[C@@H](O)[C@@H](C)[C@H](OC(C)=O)[C@@H]1C` [rifampin], the “percentage area in mixtures of rifampin and minocycline in PBS with versus without tranexamic acid” value in data set [1] is reported as “substantially the same”. Moreover, in data set [2], the “elution rate from p22-27.5 polymer, effect of TXA in the release media” value was “not affected”.
As to `NC[C@H]1CC[C@H](C(=O)O)CC1` [tranexamic acid], in the data set with blood (1.2 mg of TXA alone), the “time required to induce blood clotting in vitro” value is recorded as “about 19 minutes”. In addition, in the data set with blood (1.6 mg TXA vs 200 mg of TXA, in the presence of TYRX), the “Clotting time with higher amounts of TXA” value is “increased”. Moreover, the “time to reach plasma concentrations” value in data set [3] is 5 to 15 min.
